Measured values as given in US10793520B2, “Sulfonylaminobenzamide compound and pest control agent” (Nippon Soda Co., Ltd., priority 2016, dated 2020).

Experiments:
Mythimna separata = assay: Efficacy test against Mythimna separata (treated artificial feed); conditions: in vivo
Description: (§1) Five parts of the compound of the present invention, 93.6 parts of dimethylformamide and 1.4 parts of a polyoxyethylene alkyl aryl ether were mixed together and dissolved to obtain an emulsion (1) containing 5% of the active constituent.
(§2) The mortality rate was calculated using the following equation. Mortality rate (%)=(number of dead pests/number of test pests)×100
First, 0.8 g of an artificial feed (Insecta LFS, manufactured by Nosan Corporation) and 1 μl of the emulsion (I) were mixed thoroughly, and 0.2 g of the resulting mixture was placed in each of the treatment areas of a plastic test container (volume: 1.4 ml) to complete preparation of a test feed.
Two second-instar larvae of Mythimna separata were inoculated into each treatment area, and the test container was sealed with a plastic lid. The sealed container was placed in a temperature-controlled room at 25° C., and the mortality rate and the amount of feed consumed were determined on the fifth day. The test was repeated. Further, a test performed under the same conditions, but with the exception of excluding the compound of the present invention from the emulsion (1), was used as a control.

Meloidogyne incognita [1] = assay: Efficacy test against Meloidogyne incognita (clubroot formation suppression test on cucumber); format: in vivo; conditions: 125 ppm, 1 ml irrigated on culture medium with cucumber seeds; 200 eggs; after 14 days; relative to untreated sample
Description: as §1
The emulsion (I) was diluted with water to achieve a concentration of the compound of the present invention of 125 ppm. A plastic container with a diameter of 5 cm was filled with 7 g of a culture medium, and cucumber seeds were planted. The culture medium was irrigated with 1 ml of the above dilute liquid, and then inoculated with 200 eggs of Meloidogyne incognita. The container was then placed in a temperature-controlled room at a temperature of 25° C. and a humidity of 60%, and after 14 days, the clubroot formation suppression ratio (%) relative to an untreated sample was calculated from the number of clubroots formed on the roots of the cucumber plants. The test was repeated. Clubroot formation suppression ratio (%)=(1−Nt/Nc)×100
Nt: Total number of club roots formed in two treated samples after 14 days
Nc: Total number of club roots formed in two untreated samples after 14 days

Spodoptera litura = assay: Efficacy test against Spodoptera litura (cabbage leaf dip); format: in vivo; conditions: foliar, 144 h, cabbage leaves soaked 30 seconds, second-instar larvae, 6 days after larvae release, read-out: mortality rate against Spodoptera litura
Description: as §1, §2
The emulsion (1) was diluted with water to achieve a concentration of the compound of the present invention of 125 ppm. Cabbage leaves were soaked in the diluted liquid for 30 seconds. These cabbage leaves were then placed in a Petri dish, and five second-instar larvae of Spodoptera litura were released into the dish. The Petri dish was placed in a temperature-controlled room at a temperature of 25° C. and a humidity of 60%. Mortality was investigated 6 days after larvae release, and the mortality rate was calculated. The test was repeated.

Meloidogyne incognita [2] = assay: Efficacy test against Meloidogyne incognita (in vitro test); conditions: 48 h, final concentration 50 ppm, second-instar larvae (L2), 2 days at 15° C., read-out: nematode mortality (still) rate against Meloidogyne incognita
Description: Two hundred μL of a suspension containing about 50 second-instar larvae (L2) of Meloidogyne incognita was dispensed into each well of a 96-well microplate, and 0.2 μL of a 10,000 ppm dimethylsulfoxide solution of the compound of the present invention was injected into each well to achieve a final concentration of 50 ppm. Mortality was investigated after 2 days treatment at 15° C., and the nematode mortality rate was calculated. […] The test was repeated.

Caenorhabditis elegans = assay: Efficacy test against Caenorhabditis elegans (in vitro test); conditions: 48 h, final concentration 50 ppm, mixed instars, 2 days at 25° C., read-out: nematode mortality rate against Caenorhabditis elegans
Description: Two hundred μL of a suspension containing about 50 mixed instars of Caenorhabditis elegans was dispensed into each well of a 96-well microplate, and 0.2 μL of a 10,000 ppm dimethylsulfoxide solution of the compound of the present invention was injected into each well to achieve a final concentration of 50 ppm. Mortality was investigated after 2 days treatment at 25° C., and the nematode mortality rate was calculated. […] The test was repeated.

Aedes aegypti = assay: Contact/ingestion efficacy test against Aedes aegypti larvae; format: in vivo; conditions: final concentration 12.5 μM, first-instar larvae, after 48 hours, 28° C., 80% RH, read-out: mortality rate against Aedes aegypti
Description: A DMSO solution of the compound of the present invention was diluted with water to obtain a 125 μM dilute solution. Ten first-instar larvae of Aedes aegypti were placed in each well of a 96-well microtiter plate, the above dilute liquid was added in a ratio of 1/10, and a test was conducted at a final concentration of 12.5 μM. The samples were incubated in a temperature-controlled room (28° C., 80% RH), and after 48 hours of treatment with the compound, the mortality of the larvae was investigated. The test was repeated.

Dirofilaria immitis = assay: Efficacy test against Dirofilaria immitis (in vitro, Mf and L4); conditions: 10 μM, 72 hours, 37° C.
Source text: Using the microfilarial stage and the fourth stage larvae (Mf and L4 respectively) of Dirofilaria immitis, the bioactivity of compounds of the present invention were investigated in vitro. The Mf was collected from the blood of infected dogs, and 500 microfilariae were inoculated into each well of a 96-well microtiter plate. The L4 larvae was obtained by allowing L3 larvae collected from infected mosquitoes to undergo a single molt, and 10 of these L4 larvae were inoculated into each well. Subsequently, a 10 mM DMSO solution of the compound of the present invention was prepared at various concentrations and added to each well in a ratio of 1/1,000, and a test was then conducted at a final concentration of 10 μM. Incubation was performed at 37° C. in an environment containing 5% carbon dioxide, and 72 hours after treatment with the compound, the mortality and growth inhibition were determined. The test was repeated.

| SMILES | mortality rate against Mythimna separata, or amount of feed consumed relative to control (Mythimna separata) | also measured |
| --- | --- | --- |
| COC(=O)c1cc(Cl)c(Cl)cc1NC(=O)c1ccc(C(F)(F)F)cc1NS(=O)(=O)C(F)(F)F [a-80] | 100%, or the amount of feed consumed was 10% or less | clubroot formation suppression ratio against Meloidogyne incognita (Meloidogyne incognita [1]): ≥ 80% |
| O=C(Nc1ccc(C(F)(F)F)cc1)c1ccc(C(F)(F)F)cc1NS(=O)(=O)C(F)(F)F [a-9, 4-(trifluoromethyl)-N-[4-(trifluoromethyl)phenyl]-2-(trifluoromethylsulfonylamino)benzamide] | – | mortality at 125 ppm (Spodoptera litura): ≥ 80%; mortality at 50 ppm (Meloidogyne incognita [2]): ≥ 80%; mortality at 50 ppm (Caenorhabditis elegans): ≥ 80%; mortality at 12.5 µM (Aedes aegypti): ≥ 80% |
| O=C(Nc1ccc(C(F)(F)F)cc1Cl)c1ccc(C(F)(F)F)cc1NS(=O)(=O)C(F)(F)F [a-7] | 100%, or the amount of feed consumed was 10% or less | – |
| O=C(Nc1ccc(Cl)cc1C(F)(F)F)c1ccc(C(F)(F)F)cc1NS(=O)(=O)C(F)(F)F [a-55] | 100%, or the amount of feed consumed was 10% or less | – |
| N#Cc1ccc(NC(=O)c2ccc(C(F)(F)F)cc2NS(=O)(=O)C(F)(F)F)cc1C(F)(F)F [a-37] | 100%, or the amount of feed consumed was 10% or less | – |
| Cc1cc(C(F)(C(F)(F)F)C(F)(F)F)ccc1NC(=O)c1ccc(C(F)(F)F)cc1NS(=O)(=O)C(F)(F)F [a-20] | 100%, or the amount of feed consumed was 10% or less | – |
| COC(=O)c1ccc(C(F)(F)F)cc1NC(=O)c1cc(Br)c(Cl)cc1NS(=O)(=O)C(F)(F)F [a-131] | 100%, or the amount of feed consumed was 10% or less | – |
| O=C(Nc1ccc(F)c(C(F)(F)F)c1)c1ccc(C(F)(F)F)cc1NS(=O)(=O)C(F)(F)F [a-2] | 100%, or the amount of feed consumed was 10% or less | – |
| O=C(Nc1cc(C(F)(F)F)ccc1-n1cccn1)c1ccc(C(F)(F)F)cc1NS(=O)(=O)C(F)(F)F [a-81] | 100%, or the amount of feed consumed was 10% or less | – |
| N#Cc1ccc(C(=O)Nc2ccc(C(F)(F)F)cc2)c(NS(=O)(=O)C(F)(F)F)c1 [a-36] | 100%, or the amount of feed consumed was 10% or less | – |
| O=C(Nc1ccc(OC(F)(F)F)cc1)c1ccc(C(F)(F)F)cc1NS(=O)(=O)CC(F)(F)F [a-30] | 100%, or the amount of feed consumed was 10% or less | – |
| O=C(Nc1ccc(C(F)(F)F)cc1)c1cc(C(F)(F)F)c(F)cc1NS(=O)(=O)C(F)(F)F [a-122] | 100%, or the amount of feed consumed was 10% or less | – |
| O=C(Nc1ccc(C(F)(F)F)c(F)c1)c1ccc(C(F)(F)F)cc1NS(=O)(=O)C(F)(F)F [a-64] | 100%, or the amount of feed consumed was 10% or less | – |
| O=C(Nc1ccc(Br)cc1-n1cccn1)c1ccc(C(F)(F)F)cc1NS(=O)(=O)C(F)(F)F [a-76] | 100%, or the amount of feed consumed was 10% or less | – |
| COC(=O)c1cc(F)c(F)cc1NC(=O)c1cc(C(F)(F)F)c(F)cc1NS(=O)(=O)C(F)(F)F [a-99] | 100%, or the amount of feed consumed was 10% or less | – |
| O=C(Nc1ccc(C(F)(F)F)cc1)c1ccc(-c2ccc(C(F)(F)F)nc2)cc1NS(=O)(=O)C(F)(F)F [a-118] | 100%, or the amount of feed consumed was 10% or less | – |
| COC(=O)c1cc(Cl)ccc1NC(=O)c1ccc(C(F)(F)F)cc1NS(=O)(=O)C(F)(F)F [a-60] | 100%, or the amount of feed consumed was 10% or less | – |
| COC(=O)c1cc(Br)ccc1NC(=O)c1cc(C(F)(F)F)c(Cl)cc1NS(=O)(=O)C(F)(F)F [a-84] | 100%, or the amount of feed consumed was 10% or less | – |
| O=C(Nc1ccc(C(F)(F)F)cc1)c1ccc(OC(F)(F)F)cc1NS(=O)(=O)C(F)(F)F [a-26] | 100%, or the amount of feed consumed was 10% or less | mortality rate or growth inhibition rate (Dirofilaria immitis; fourth stage larvae (L4)): at least 90%; mortality rate or growth inhibition rate (Dirofilaria immitis; microfilarial stage (Mf)): at least 90% |
| N#Cc1ccc(C(=O)Nc2ccc(C(F)(F)F)cc2)c(NS(=O)(=O)CC(F)(F)F)c1 [a-38] | 100%, or the amount of feed consumed was 10% or less | – |
| O=C(Nc1ccc(OC(F)(F)F)cc1)c1ccc(C(F)(F)F)cc1NS(=O)(=O)C(F)(F)F [a-15] | 100%, or the amount of feed consumed was 10% or less | – |
| CON=Cc1cc(Cl)ccc1NC(=O)c1ccc(C(F)(F)F)cc1NS(=O)(=O)C(F)(F)F [a-115] | 100%, or the amount of feed consumed was 10% or less | – |
| O=C(Nc1ccc(C(F)(F)F)cc1)c1cc(Cl)c(Cl)cc1NS(=O)(=O)C(F)(F)F [a-128] | 100%, or the amount of feed consumed was 10% or less | – |
| N#Cc1cc(Cl)ccc1NC(=O)c1ccc(C(F)(F)F)cc1NS(=O)(=O)C(F)(F)F [a-51] | 100%, or the amount of feed consumed was 10% or less | – |
| CCOC(=O)c1cc(Br)ccc1NC(=O)c1ccc(C(F)(F)F)cc1NS(=O)(=O)C(F)(F)F [a-61] | 100%, or the amount of feed consumed was 10% or less | – |
| O=C(Nc1ccc([N+](=O)[O-])cc1)c1ccc(-c2ccc(C(F)(F)F)nc2)cc1NS(=O)(=O)C(F)(F)F [a-121] | 100%, or the amount of feed consumed was 10% or less | – |
